Experimental data from PMC9508196 (Scientific Reports, 2022).
Converted amounts (≈) assume the structure as drawn. Like-named read-outs stand apart in the source and are kept apart here.

Assays:
[1] = system: A. baumannii isolate A-8.2-1; assay: Disk diffusion test (CLSI), antibiotic susceptibility profile; format: cell-based, Acinetobacter baumannii; conditions: CLSI breakpoints
Experimental: (§1) ^aAntibiotic susceptibility profile of all isolated strains was evaluated by disk diffusion test, using the standard protocol guide of the Clinical and Laboratory Standards Institute (CLSI), and interpreted as S: Susceptible to standard dosing regimen; I: Intermediate; R: Resistant (in accordance with the criteria of CLST breakpoints).

[2] = system: A. baumannii isolate B-8.1-2; assay: as above; format: cell-based, Acinetobacter baumannii; conditions: CLSI breakpoints
Experimental: as §1

[3] = system: A. baumannii isolate C-8.2-1; assay: as above; format: cell-based, Acinetobacter baumannii; conditions: CLSI breakpoints
Experimental: as §1

[4] = system: A. baumannii isolate B-8.2-2; assay: as above; format: cell-based, Acinetobacter baumannii; conditions: CLSI breakpoints
Experimental: as §1

[5] = system: A. baumannii isolate D-10.1-1; assay: as above; format: cell-based, Acinetobacter baumannii; conditions: CLSI breakpoints
Experimental: as §1

[6] = system: A. baumannii isolate D-10.1-2; assay: as above; format: cell-based, Acinetobacter baumannii; conditions: CLSI breakpoints
Experimental: as §1

[7] = system: A. baumannii isolate C-8.1-2; assay: as above; format: cell-based, Acinetobacter baumannii; conditions: CLSI breakpoints
Experimental: as §1

[8] = system: A. baumannii isolate B-8.1-1; assay: as above; format: cell-based, Acinetobacter baumannii; conditions: CLSI breakpoints
Experimental: as §1

A. baumannii ATCC 19,606 [9] = assay: microbe, parasite or virus in culture; format: cell-based, Acinetobacter baumannii
Description: (§2) Ten strains of both Gram-positive and -negative bacteria, including Staphylococcus aureus ATCC 25,923, S. epidermidis ATCC 12,228, Bacillus cereus ATCC 11,778, Listeria monocytogenes 10403S, Salmonella typhimurium ATCC 13,311, Pseudomonas aeruginosa ATCC 27,853, Shigella sonnei ATCC 11,060, A. baumannii ATCC 19,606, Escherichia coli ATCC 25,922 and E. coli O157:H7, were used in this study. Eight clinical isolates of multidrug-resistant (MDR) and extensively drug-resistant (XDR) A. baumannii, isolated from human (blood, sputum, respiratory sample, sterile site sample and urine), were kindly provided by Asst. Prof. Dr. Sakawrat Kanthawong (Faculty of Medicine, Khon Kaen University, Thailand) (Table S1). All bacterial strains, excluding L. monocytogenes 10403S and E. coli, were cultured in tryptic soy broth (TSB). L. monocytogenes was grown in TSB supplemented with 0.6% yeast extract (TSB-YE), and E. coli was cultured in Luria broth (LB). All of bacteria were cultured at 37 °C with continuous shaking at 220 rpm.
(§3) Minimum inhibitory concentration (MIC) of peptides and antibiotics was assessed by a modified version of the broth microdilution method from the Clinical and Laboratory Standards Institute (CLSI) as previously described. In brief, mid-log phase growths of microbial strains were cultured in Müeller-Hinton broth (MHB) with an initial inoculum of 2–8 × 10^5 CFU/mL. Bacteria suspensions were incubated in sterile 96-well plates with test agents at desired concentrations. […] Minimum bactericidal concentration (MBC) determination was performed using a modified version of the colony count assay. In brief, fifty µl of all non-turbid wells from MIC experiments were spread on agar plates. The MBC value was defined as the lowest concentration of peptides with no colony growth on the plate. All assays were performed in triplicate.

[10] = system: A. baumannii B-8.1–1 (MDR); assay: microbe, parasite or virus in culture; format: cell-based, Acinetobacter baumannii
Description: as §2, §3

[11] = system: A. baumannii B-8.1–2 (MDR); assay: microbe, parasite or virus in culture; format: cell-based, Acinetobacter baumannii
Description: as §2, §3

[12] = system: A. baumannii B-8.2–2 (XDR); assay: microbe, parasite or virus in culture; format: cell-based, Acinetobacter baumannii
Description: as §2, §3

[13] = system: A. baumannii A-8.2–1 (XDR); assay: microbe, parasite or virus in culture; format: cell-based, Acinetobacter baumannii
Description: as §2, §3

[14] = system: A. baumannii C-8.2–1 (XDR); assay: microbe, parasite or virus in culture; format: cell-based, Acinetobacter baumannii
Description: as §2, §3

[15] = system: A. baumannii C-8.1–2 (MDR); assay: microbe, parasite or virus in culture; format: cell-based, Acinetobacter baumannii
Description: as §2, §3

A. baumannii ATCC 19,606 [16] = assay: microbe, parasite or virus in culture; conditions: for fold increase of MIC: serial passages at half-MIC
Experimental: A. baumannii ATCC 19,606 was adjusted to approximately 10^6 CFU/ml in MHB. […] After 24 h incubation, bacterial suspensions of the wells at half-MIC concentration of tested agent were taken and washed 2 times with MHB to prepare the next initial-passage of bacteria. Twenty repeat passages were performed for each tested compound. Along with the test, a negative control was included: the MIC value of bacteria cultured in MHB-deionized water after 20 passages.

[17] = system: A. baumannii D-10.1–2 (MDR); format: cell-based, Acinetobacter baumannii; conditions: clinical isolate D-10.1–2 (MDR), urine
Description: as §2, §3

[18] = system: A. baumannii D-10.1–1 (MDR); format: cell-based, Acinetobacter baumannii; conditions: clinical isolate D-10.1–1 (MDR), urine
Description: as §2, §3

[19] = Acinetobacter baumannii, ATCC19
[20] = Acinetobacter baumannii, ATCC19, 24 h
[21] = clinical isolate B-8.1–1 (MDR), respiratory tract
[22] = clinical isolate B-8.1–2 (MDR), respiratory tract
[23] = clinical isolate B-8.2–2 (XDR), respiratory tract
[24] = clinical isolate A-8.2–1 (XDR), blood
[25] = clinical isolate C-8.2–1 (XDR), sterile site
[26] = clinical isolate C-8.1–2 (MDR), sterile site

Compound	Antibiotic susceptibility profile [1]	Antibiotic susceptibility profile [2]	Antibiotic susceptibility profile [3]	Antibiotic susceptibility profile [4]	Antibiotic susceptibility profile [5]	Antibiotic susceptibility profile [6]	Antibiotic susceptibility profile [7]	Antibiotic susceptibility profile [8]	MBC (A. baumannii ATCC 19,606 [9]; [19])	MIC (A. baumannii ATCC 19,606 [9]; [20])	MBC ([10]; Acinetobacter baumannii)	MIC ([10]; Acinetobacter baumannii)	MBC ([11]; Acinetobacter baumannii)	MIC ([11]; Acinetobacter baumannii)	MBC ([12]; Acinetobacter baumannii)	MIC ([12]; Acinetobacter baumannii)	MBC ([13]; Acinetobacter baumannii)	MIC ([13]; Acinetobacter baumannii)	MBC ([14]; Acinetobacter baumannii)	MIC ([14]; Acinetobacter baumannii)	other results
CC1(C)S[C@@H]2[C@H](NC(=O)[C@H](N)c3ccccc3)C(=O)N2[C@H]1C(=O)O [Amp, Ampicillin]	R	R	R	R	R	R	R	R	–	–	–	–	–	–	–	–	–	–	–	–	–
CC(C)(O/N=C(\C(=O)N[C@@H]1C(=O)N2C(C(=O)[O-])=C(C[n+]3ccccc3)CS[C@H]12)c1csc(N)n1)C(=O)O [Caz, Ceftazidime]	R	R	R	R	R	I	I	S	–	–	–	–	–	–	–	–	–	–	–	–	–
CNC(C)C1CCC(N)C(OC2C(N)CC(N)C(OC3OCC(C)(O)C(NC)C3O)C2O)O1 (stereo not drawn) [Gen, Gentamicin]	R	R	R	R	R	I	R	I	–	–	–	–	–	–	–	–	–	–	–	–	–
C[C@H]1COc2c(N3CCN(C)CC3)c(F)cc3c(=O)c(C(=O)O)cn1c23 [Levofloxacin]	R	R	R	R	I	R	R	S	≤ 0.49 µg/mL	≤ 0.49 µg/mL	1.95 µg/mL (≈ 5.4 µM)	≤ 0.49 µg/mL	250 µg/mL (≈ 692 µM)	125 µg/mL (≈ 346 µM)	7.81 µg/mL (≈ 21.6 µM)	7.81 µg/mL (≈ 21.6 µM)	3.91 µg/mL (≈ 10.8 µM)	3.91 µg/mL (≈ 10.8 µM)	7.81 µg/mL (≈ 21.6 µM)	3.91 µg/mL (≈ 10.8 µM)	MBC ([15]; Acinetobacter baumannii): 31.2 µg/mL (≈ 86.5 µM); MIC ([15]; Acinetobacter baumannii): 31.2 µg/mL (≈ 86.5 µM)
C[C@@H](O)[C@H]1C(=O)N2C(C(=O)O)=C(S[C@@H]3CN[C@H](C(=O)N(C)C)C3)[C@H](C)[C@H]12 [Meropenem]	R	R	R	R	R	R	R	S	0.98 µg/mL (≈ 2.56 µM)	0.98 µg/mL (≈ 2.56 µM)	15.6 µg/mL (≈ 40.8 µM)	0.98 µg/mL (≈ 2.56 µM)	125 µg/mL (≈ 326 µM)	125 µg/mL (≈ 326 µM)	125 µg/mL (≈ 326 µM)	125 µg/mL (≈ 326 µM)	62.5 µg/mL (≈ 163 µM)	62.5 µg/mL (≈ 163 µM)	250 µg/mL (≈ 652 µM)	125 µg/mL (≈ 326 µM)	MBC ([15]; Acinetobacter baumannii): 125 µg/mL (≈ 326 µM); MIC ([15]; Acinetobacter baumannii): 125 µg/mL (≈ 326 µM); MIC (A. baumannii ATCC 19,606 [16]; Acinetobacter baumannii, ATCC19, 24 h, read-out: MIC after 20 passages): 15.6 µg/mL (≈ 40.8 µM); fold increase in MIC compared to the first passage (A. baumannii ATCC 19,606 [16]; after passage 20): 16 fold; fold increase of MIC (A. baumannii ATCC 19,606 [16]; day 4): 2 fold; fold increase of MIC (A. baumannii ATCC 19,606 [16]; day 6): 4 fold; fold increase of MIC (A. baumannii ATCC 19,606 [16]; day 11): eight
Colistin	S	S	S	S	S	S	S	S	–	–	–	–	–	–	–	–	–	–	–	–	MIC (A. baumannii ATCC 19,606 [9]; A. baumannii ATCC 19,606, broth microdilution (modified CLSI), MHB, 2–8 × 10^5 CFU/mL, 24 h, 37 °C, triplicate): 0.98(0.98) µg/ml; MBC (A. baumannii ATCC 19,606 [9]; A. baumannii ATCC 19,606, colony count from non-turbid MIC wells, triplicate): 0.98(0.98) µg/ml; MBC [10, 21]: 1.95(1.95) µg/ml; MIC [10, 21]: 1.95(1.95) µg/ml; MBC [11, 22]: 0.98(0.98) µg/ml; MIC [11, 22]: 0.98(0.98) µg/ml; MBC [12, 23]: 1.95(1.95) µg/ml; MIC [12, 23]: 1.95(1.95) µg/ml; MBC [13, 24]: 1.95(1.95) µg/ml; MIC [13, 24]: 1.95(1.95) µg/ml; MBC [14, 25]: 0.98(0.98) µg/ml; MIC [14, 25]: 0.98(0.98) µg/ml; MBC [15, 26]: 1.95(1.95) µg/ml; MIC [15, 26]: 1.95(1.95) µg/ml; MBC [17]: 1.95(1.95) µg/ml; MIC [17]: 1.95(1.95) µg/ml; MBC [18]: 0.98(0.98) µg/ml; MIC [18]: 0.98(0.98) µg/ml
